19 molecules from US10287301B2 (Achillion Pharmaceuticals, Inc., priority 2015, dated 2019) can be followed below.

Human Factor D, sequence (P00746 26-253): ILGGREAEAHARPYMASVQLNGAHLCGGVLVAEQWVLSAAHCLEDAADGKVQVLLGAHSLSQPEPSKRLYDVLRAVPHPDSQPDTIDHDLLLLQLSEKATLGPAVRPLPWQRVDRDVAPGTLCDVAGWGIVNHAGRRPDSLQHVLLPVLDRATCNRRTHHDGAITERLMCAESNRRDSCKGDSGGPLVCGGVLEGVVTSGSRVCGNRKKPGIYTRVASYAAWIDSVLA

In this test the target is Human Factor D (Homo sapiens (Human), UniProt P00746). The test can be described thus: Human Factor D Assay. It is filed as biochemical. The settings on record: Human Factor D assay of Example 8; Table 2; read-out: IC50. In a few lines:
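Serum-purified human Factor D (80 nM final) was preincubated with test compound at various concentrations for 5 min at room temperature in 50 mM Tris, 1M NaCl, pH 7.5. Z-L-Lys-SBzl and DTNB were then added at 100 μM each. IC50 came from nonlinear regression of reaction rates versus compound concentration.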
On to `CC(=O)c1nn(CC(=O)N2CC=C[C@H]2C(=O)Nc2cccc(-c3ccccc3Cl)c2F)c2ccc(-c3cnc(C)nc3)cc12` [Compound 286, (S)-1-(2-(3-acetyl-5-(2-methylpyrimidin-5-yl)-1H-indazol-1-yl)acetyl)-N-(2′-chloro-2-fluorobiphenyl-3-yl)-2,5-dihydro-1H-pyrrole-2-carboxamide], for which the IC50 was less than 1000 nM.

As for `CCOC(=O)c1cc2ncc(-c3ccc4c(c3)c(C(C)=O)nn4CC(=O)N3C[C@H](F)C[C@H]3C(=O)Nc3cccc(Br)n3)cn2n1` [Compound 287, ethyl 6-(3-acetyl-1-(2-((2S,4R)-2-(6-bromopyridin-2-ylcarbamoyl)-4-fluoropyrrolidin-1-yl)-2-oxoethyl)-1H-indazol-5-yl)pyrazolo[1,5-a]pyrimidine-2-carboxylate], the IC50 is less than 1000 nM.

`CC(=O)c1nn(CC(=O)N2C[C@H](F)C[C@H]2C(=O)Nc2cccc(Br)n2)c2ccc(-c3cnc4cc(C(N)=O)nn4c3)cc12` [Compound 288, 6-(3-Acetyl-1-(2-((2S,4R)-2-((6-Bromopyridin-2-yl)carbamoyl)-4-fluoropyrrolidin-1-yl)-2-oxoethyl)-1H-indazol-5-yl)pyrazolo[1,5-a]pyrimidine-2-carboxamide]: the IC50 was less than 1000 nM.

In the case of `CC(=O)c1nn(CC(=O)N2C[C@H](F)C[C@H]2C(=O)Nc2cccc(Br)n2)c2ccc(-c3cnc4cc(C(=O)O)nn4c3)cc12` [Compound 289, 6-(3-acetyl-1-(2-((2S,4R)-2-(6-bromopyridin-2-ylcarbamoyl)-4-fluoropyrrolidin-1-yl)-2-oxoethyl)-1H-indazol-5-yl)pyrazolo[1,5-a]pyrimidine-2-carboxylic acid], the IC50 was less than 1000 nM.

`COCCOCCNC(=O)c1cc2ncc(-c3ccc4c(c3)c(C(C)=O)nn4CC(=O)N3C[C@H](F)C[C@H]3C(=O)Nc3cccc(Br)n3)cn2n1` [Compound 290, 6-(3-acetyl-1-(2-((2S,4R)-2-(6-bromopyridin-2-ylcarbamoyl)-4-fluoropyrrolidin-1-yl)-2-oxoethyl)-1H-indazol-5-yl)-N-(2-(2-methoxyethoxy)ethyl)pyrazolo[1,5-a]pyrimidine-2-carboxamide]: the half-inhibitory concentration (IC50) is less than 1000 nM.

Take `CC(=O)c1nn(CC(=O)N2C[C@H](F)C[C@H]2C(=O)Nc2cccc(Br)n2)c2ccc(-c3n[nH]c4ccsc34)cc12` [Compound 291, (2S,4R)-1-(2-(3-Acetyl-5-(1H-thieno[3,2-c]pyrazol-3-yl)-1H-indazol-1-yl)acetyl)-N-(6-bromopyridin-2-yl)-4-fluoropyrrolidine-2-carboxamide]: the IC50 was less than 1000 nM.

As for `CC(=O)n1cc(NC(=O)N2C[C@H](F)C[C@H]2C(=O)Nc2cccc(Br)n2)c2ccc(-c3cnc(C)nc3)cc21` [Compound 292, (2S,4R)-N1-(1-acetyl-6-(2-methylpyrimidin-5-yl)-1H-indol-3-yl)-N2-(6-bromopyridin-2-yl)-4-fluoropyrrolidine-1,2-dicarboxamide], the IC50 was less than 1000 nM.

As for `CC(=O)n1cc(NC(=O)N2C[C@H](F)C[C@H]2C(=O)Nc2cccc(-c3ccccc3Cl)c2F)c2ccc(-c3cnc(C)nc3)cc21` [Compound 293], the IC50 was less than 1000 nM.

Consider `CC(=O)c1nn(CC(=O)N2CC=C[C@H]2C(=O)Nc2cccc(Br)n2)c2ccc(-c3cnc(C)nc3)cc12` [Compound 294, (S)-1-(2-(3-acetyl-5-(2-methylpyrimidin-5-yl)-1H-indazol-1-yl)acetyl)-N-(6-bromopyridin-2-yl)-2,5-dihydro-1H-pyrrole-2-carboxamide], for which the IC50 was less than 1000 nM.

`CC(=O)c1nn(CC(=O)N2C[C@H](F)C[C@H]2C(=O)Nc2cccc(-c3cccc(S(C)(=O)=O)c3)c2F)c2ccc(-c3cnc(C)nc3)cc12` [Compound 295, (2S,4R)-1-(2-(3-Acetyl-5-(2-methylpyrimidin-5-yl)-1H-indazol-1-yl)acetyl)-4-fluoro-N-(2-fluoro-3′-(methylsulfonyl)-[1,1′-biphenyl]-3-yl)pyrrolidine-2-carboxamide]: the IC50 is less than 1000 nM.

With `CC(=O)c1nn(CC(=O)N2C[C@H](F)C[C@H]2C(=O)Nc2cccc(-c3ccccc3Cl)c2F)c2ccc(-c3cnc4cc(C)nn4c3)cc12` [Compound 296, (2S,4R)-1-(2-(3-acetyl-5-(2-methylpyrazolo[1,5-a]pyrimidin-6-yl)-1H-indazol-1-yl)acetyl)-N-(2′-chloro-2-fluorobiphenyl-3-yl)-4-fluoropyrrolidine-2-carboxamide], the IC50 is less than 1000 nM.

As to `CC(=O)c1nn(CC(=O)N2C[C@H](F)C[C@H]2C(=O)Nc2cccc(Br)n2)c2ccc(-c3nc4c(s3)CCCC4)cc12` [Compound 297], the IC50 was more than 10000 nM.

Turning to `CC(=O)c1cn(CC(=O)N2[C@@H]3C[C@@H]3C[C@H]2C(=O)Nc2cccc(Br)n2)c2ccc(-c3cnc4cc(C)nn4c3)cc12` [Compound 298, (1R,3S,5R)-2-(2-(3-acetyl-5-(2-methylpyrazolo[1,5-a]pyrimidin-6-yl)-1H-indol-1-yl)acetyl)-N-(6-bromopyridin-2-yl)-2-azabicyclo[3.1.0] hexane-3-carboxamide], the IC50 was less than 1000 nM.

As to `CC(=O)c1cn(CC(=O)N2C[C@H](F)C[C@H]2C(=O)NCc2cccc(Cl)c2F)c2ccc(-c3cnc4cc(C)nn4c3)cc12` [Compound 299, (2S,4R)-1-(2-(3-acetyl-5-(2-methylpyrazolo[1,5-a]pyrimidin-6-yl)-1H-indol-1-yl)acetyl)-N-(3-chloro-2-fluorobenzyl)-4-fluoropyrrolidine-2-carboxamide], the IC50 was less than 1000 nM.

With `CC(=O)c1cn(CC(=O)N2C[C@H](F)C[C@H]2C(=O)Nc2cccc(-c3ccccc3Cl)c2F)c2ccc(-c3cnc4cc(C)nn4c3)cc12` [Compound 300, (2S,4R)-1-(2-(3-acetyl-5-(2-methylpyrazolo[1,5-a]pyrimidin-6-yl)-1H-indol-1-yl)acetyl)-N-(2′-chloro-2-fluorobiphenyl-3-yl)-4-fluoropyrrolidine-2-carboxamide], the IC50 is less than 1000 nM.

Take `CC(=O)c1cn(CC(=O)N2C[C@H](F)C[C@H]2C(=O)Nc2cccc(C(F)(F)F)n2)c2ccc(-c3cnc4cc(C)nn4c3)cc12` [Compound 301, (2S,4R)-1-(2-(3-acetyl-5-(2-methylpyrazolo[1,5-a]pyrimidin-6-yl)-1H-indol-1-yl)acetyl)-4-fluoro-N-(6-(trifluoromethyl)pyridin-2-yl)pyrrolidine-2-carboxamide]: the IC50 is less than 1000 nM.

Consider `CC(=O)c1nn(CC(=O)N2C[C@H](F)C[C@H]2C(=O)Nc2cccc(Br)n2)c2ccc(-c3cnc4cccnn34)cc12` [Compound 302, (2S,4R)-1-(2-(3-acetyl-5-(imidazo[1,2-b]pyridazin-3-yl)-1H-indazol-1-yl)acetyl)-N-(6-bromopyridin-2-yl)-4-fluoropyrrolidine-2-carboxamide], for which the IC50 was less than 1000 nM.

As to `CC(=O)c1nn(CC(=O)N2C[C@H](F)C[C@H]2C(=O)Nc2cccc(Br)n2)c2ccc(-c3ccc4nccn4n3)cc12` [Compound 303, (2S,4R)-1-(2-(3-acetyl-5-(imidazo[1,2-b]pyridazin-6-yl)-1H-indazol-1-yl)acetyl)-N-(6-bromopyridin-2-yl)-4-fluoropyrrolidine-2-carboxamide], the IC50 is less than 1000 nM.

On to `CC(=O)c1nn(CC(=O)N2C[C@H](F)C[C@H]2C(=O)Nc2cccc(Br)n2)c2ccc(-c3cnn4ccnc4c3)cc12` [Compound 304, (2S,4R)-1-(2-(3-acetyl-5-(imidazo[1,2-b]pyridazin-7-yl)-1H-indazol-1-yl)acetyl)-N-(6-bromopyridin-2-yl)-4-fluoropyrrolidine-2-carboxamide], for which the IC50 was less than 1000 nM.
